Each structure is given as a SMILES string.

Here are results for three compounds from PMC3711460 (The Journal of neuroscience : the official journal of the …, 2013).

One assay addresses T1, TAAR3 (Mus musculus, UniProt Q5QD16).
T1 sequence (Q5QD16 1-343): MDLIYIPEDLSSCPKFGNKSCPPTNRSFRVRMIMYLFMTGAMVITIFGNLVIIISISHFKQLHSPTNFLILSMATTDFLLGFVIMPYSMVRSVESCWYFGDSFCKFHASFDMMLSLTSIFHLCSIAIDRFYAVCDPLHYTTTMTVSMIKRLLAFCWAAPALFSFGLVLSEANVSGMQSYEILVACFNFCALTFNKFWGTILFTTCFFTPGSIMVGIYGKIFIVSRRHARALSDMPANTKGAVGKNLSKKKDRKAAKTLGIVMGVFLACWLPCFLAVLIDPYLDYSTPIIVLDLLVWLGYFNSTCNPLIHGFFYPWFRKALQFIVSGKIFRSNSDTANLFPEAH
The assay is classed as cell-based.

Another assay addresses T2, human TAAR5 (Homo sapiens, UniProt O14804).
T2 sequence (O14804 1-337): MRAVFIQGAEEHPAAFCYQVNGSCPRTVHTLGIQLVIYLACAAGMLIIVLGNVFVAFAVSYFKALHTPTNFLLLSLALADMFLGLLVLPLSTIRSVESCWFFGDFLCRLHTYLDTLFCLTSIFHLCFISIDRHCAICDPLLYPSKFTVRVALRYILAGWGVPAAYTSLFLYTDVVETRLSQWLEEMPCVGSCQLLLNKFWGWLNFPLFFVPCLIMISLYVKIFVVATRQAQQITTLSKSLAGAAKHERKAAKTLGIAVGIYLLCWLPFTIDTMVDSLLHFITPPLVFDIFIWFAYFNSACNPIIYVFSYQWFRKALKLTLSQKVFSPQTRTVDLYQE
The assay is classed as cell-based.

`CC(C)CCN` [IPA, isopentylamine] came in with a 50% effective concentration (EC50) at TAAR3 of 15 nM.

In turn, `CCN(C)C` [DMEA, N,N-dimethylethylamine] gave an EC50 on human TAAR5 of 1200 ± 600 nM.

Compound `NC1CCCCC1` [CHX, cyclohexylamine] gave an EC50 on TAAR3 of 270 nM.

As a reminder, the EC50 is the concentration giving half of the maximal effect. Higher therefore signals a need for much substance.
